Assay results reported in US8044198B2, “Sirtuin modulating compounds” (Sirtris Pharmaceuticals, Inc., priority 2005, dated 2011).
pEC50: −log10 of the molar value. Read-outs that look alike come from different tables or passages of the source.

Target: T1, SIRT1 (Homo sapiens, UniProt Q96EB6)
T1 sequence (Q96EB6 1-747): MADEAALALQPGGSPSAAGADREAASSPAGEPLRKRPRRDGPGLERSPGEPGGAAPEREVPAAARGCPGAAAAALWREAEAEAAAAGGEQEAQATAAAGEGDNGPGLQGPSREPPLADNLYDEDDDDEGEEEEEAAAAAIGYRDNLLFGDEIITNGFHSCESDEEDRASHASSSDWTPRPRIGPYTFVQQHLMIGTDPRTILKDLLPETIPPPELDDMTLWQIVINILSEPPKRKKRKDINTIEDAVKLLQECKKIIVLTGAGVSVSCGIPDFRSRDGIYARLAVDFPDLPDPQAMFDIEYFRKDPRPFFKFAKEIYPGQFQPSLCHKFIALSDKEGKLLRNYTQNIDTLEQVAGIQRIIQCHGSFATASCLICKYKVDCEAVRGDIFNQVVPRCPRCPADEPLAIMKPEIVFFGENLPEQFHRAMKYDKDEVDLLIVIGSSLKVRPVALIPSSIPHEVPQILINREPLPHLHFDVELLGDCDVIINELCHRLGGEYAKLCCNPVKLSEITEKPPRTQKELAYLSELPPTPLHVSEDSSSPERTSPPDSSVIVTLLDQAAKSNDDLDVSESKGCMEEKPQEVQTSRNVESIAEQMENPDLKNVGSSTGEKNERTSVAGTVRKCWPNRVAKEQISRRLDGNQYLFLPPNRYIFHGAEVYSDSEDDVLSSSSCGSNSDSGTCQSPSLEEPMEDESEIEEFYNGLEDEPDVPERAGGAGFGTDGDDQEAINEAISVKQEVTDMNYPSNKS
Assay: SIRT1 mass spectrometry (MS) based deacetylation assay; for FOLD ACT. MS: test concentration or dose not given here
Assay type: biochemical
Conditions: for FOLD ACT. MS: fold activation of SIRT1 as determined by MS

[1] = SIRT1 activation, mass spectrometry assay, read-out: ED50 MS ASSAY

Compound	pEC50 [1]	FOLD ACT. MS	pEC50
COc1ccc(C(=O)Nc2ccc(-c3nc4cccnc4[nH]3)cc2)c(OC)c1OC [Compound 148]	< 3.82	–	–
COc1ccc(C(=O)Nc2ccc(-c3nc4cccnc4[nH]3)cc2)c(OC)c1 [Compound 151]	< 3.82	–	–
COc1ccc(C(=O)Nc2ccc(-c3nc4ncccc4s3)cc2)c(OC)c1 [Compound 152]	< 3.82	–	–
COc1ccc(C(=O)Nc2cc(C(=O)NCCN(C)C)cc(-c3nc4ncccc4o3)c2)c(OC)c1 [Compound 155]	4.30 to 5.30	B (B (Fold Activation <250%))	–
CN(C)Cc1cc(NC(=O)c2cccc(N(C)C)c2)cc(-c2nc3ncccc3o2)c1 [Compound 157]	< 3.82	B (B (Fold Activation <250%))	–
COc1ccc(C(=O)Nc2cc(CN3CCNCC3)cc(-c3nc4ncccc4o3)c2)cc1OC [Compound 159]	4.30 to 5.30	B (B (Fold Activation <250%))	–
COc1ccc(C(=O)Nc2cc(CN3CCNCC3)cc(-c3nc4ncccc4o3)c2)c(OC)c1 [Compound 161]	4.30 to 5.30	A (A (Fold activation >250%))	–
COc1ccc(C(=O)Nc2ccccc2-c2nc3ccncc3s2)cc1OC [Compound 162]	> 5.30	B (B (Fold Activation <250%))	–
COc1cc(C(=O)Nc2ccccc2-c2nc3ccncc3s2)cc(OC)c1OC [Compound 163]	> 5.30	B (B (Fold Activation <250%))	–
CN(C)Cc1ccc2oc(-c3cccc(NC(=O)c4cccc(N(C)C)c4)c3)nc2n1 [Compound 165]	< 3.82	A (A (Fold activation >250%))	–
CN(C)c1cccc(C(=O)Nc2cccc(-c3nc4nc(CN5CCNCC5)ccc4o3)c2)c1 [Compound 166, 3-dimethylamino-N-[3-(5-piperazin-1-ylmethyl-oxazolo[4,5-b]pyridin-2-yl)-phenyl]-benzamide]	4.30 to 5.30	B (B (Fold Activation <250%))	–
CN(C(=O)Nc1ccccc1-c1nc2ccccc2[nH]1)c1ccccc1 [Compound 169]	> 5.30	B (B (Fold Activation <250%))	–
COc1cc(C(=O)Nc2ccccc2-n2cccn2)cc(OC)c1OC [Compound 176]	4.00 to 4.29	B (B (Fold Activation <250%))	–
COc1ccc(C(=O)Nc2ccccc2-n2cccn2)cc1OC [Compound 177]	< 3.82	B (B (Fold Activation <250%))	–
COc1cc(C(=O)Nc2ccccc2-c2cn3cc(CN(C)C)sc3n2)cc(OC)c1OC [Compound 179]	> 5.30	A (A (Fold activation >250%))	–
CN(C)c1cccc(C(=O)Nc2ccc(-c3nc4cccnc4[nH]3)cc2)c1 [Compound 180]	4.30 to 5.30	B (B (Fold Activation <250%))	–
COc1ccc(C(=O)Nc2cccc(-c3nc4cccnc4[nH]3)c2)c(OC)c1OC [Compound 181]	> 5.30	A (A (Fold activation >250%))	–
COc1cc(C)ccc1C(=O)Nc1cccc(-c2nc3cccnc3[nH]2)c1 [Compound 182]	> 5.30	A (A (Fold activation >250%))	–

Compound	pEC50 [1]	FOLD ACT. MS	pEC50
COc1ccc(C(=O)Nc2cccc(-c3nc4ncccc4[nH]3)c2)c(OC)c1 [Compound 184]	> 5.30	B (B (Fold Activation <250%))	–
COc1ccc(C(=O)Nc2cccc(-c3nc4cccnc4[nH]3)c2)cc1OC [Compound 185]	> 5.30	A (A (Fold activation >250%))	–
COc1ccc(C(=O)Nc2ccc(-c3cc4cccnc4o3)cc2)c(OC)c1 [Compound 190]	> 5.30	B (B (Fold Activation <250%))	–
COc1ccc(C(=O)Nc2cccc(-c3cc4cccnc4o3)c2)cc1OC [Compound 192]	4.30 to 5.30	B (B (Fold Activation <250%))	–
CN(C)c1cccc(C(=O)Nc2ccc(-c3nc4ncccc4s3)cc2)c1 [Compound 196]	4.30 to 5.30	B (B (Fold Activation <250%))	–
COc1ccc(C(=O)Nc2ccc(-c3nc4ncccc4s3)cc2)cc1OC [Compound 197]	> 5.30	B (B (Fold Activation <250%))	–
COc1ccc(C(=O)Nc2cccc(-c3nc4ncccc4s3)c2)c(OC)c1OC [Compound 198]	4.30 to 5.30	B (B (Fold Activation <250%))	–
COc1cc(C)ccc1C(=O)Nc1cccc(-c2nc3ncccc3s2)c1 [Compound 199]	> 5.30	B (B (Fold Activation <250%))	–
CN(C)c1cccc(C(=O)Nc2cccc(-c3nc4ncccc4s3)c2)c1 [Compound 200]	–	B (B (Fold Activation <250%))	> 5.30
COc1ccc(C(=O)Nc2cccc(-c3nc4ncccc4s3)c2)cc1OC [Compound 201]	4.30 to 5.30	B (B (Fold Activation <250%))	–
COc1ccc(C(=O)Nc2cccc(-c3nc4ncccc4s3)c2)c(OC)c1 [Compound 202]	> 5.30	B (B (Fold Activation <250%))	–
COc1ccc(C(=O)Nc2ccccc2-c2cn3ccsc3n2)cc1OC [Compound 203]	> 5.30	B (B (Fold Activation <250%))	–
COc1ccc(C(=O)Nc2ccccc2-c2cn3c(CN(C)C)csc3n2)cc1OC [Compound 205]	4.30 to 5.30	A (A (Fold activation >250%))	–
COc1cc(C(=O)Nc2ccccc2-c2cn3c(CN(C)C)csc3n2)cc(OC)c1OC [Compound 206]	4.30 to 5.30	A (A (Fold activation >250%))	–
COc1cc(C(=O)Nc2ccccc2-c2cn3c(CN4CCNCC4)csc3n2)cc(OC)c1OC [Compound 208]	4.30 to 5.30	A (A (Fold activation >250%))	–
COc1ccc(C(=O)Nc2ccccc2-c2cn3c(CN4CCOCC4)csc3n2)cc1OC [Compound 209]	4.30 to 5.30	A (A (Fold activation >250%))	–
COc1cc(C(=O)Nc2ccccc2-c2cn3c(CN4CCOCC4)csc3n2)cc(OC)c1OC [Compound 210]	4.30 to 5.30	B (B (Fold Activation <250%))	–

Further lines, with some results ahead:

pEC50 [1]	FOLD ACT. MS	Compound	pEC50
> 5.30	B (B (Fold Activation <250%))	COc1cc(C)ccc1C(=O)Nc1ccc(-c2nc3cccnc3[nH]2)cc1 [Compound 149]	–
> 5.30	B (B (Fold Activation <250%))	COc1ccc(C(=O)Nc2ccc(-c3nc4cccnc4[nH]3)cc2)cc1OC [Compound 150]	–
4.30 to 5.30	B (B (Fold Activation <250%))	COc1ccc(C(=O)Nc2cc(C(=O)NCCN(C)C)cc(-c3nc4ncccc4o3)c2)cc1OC [Compound 153]	–
3.82 to 4.00	A (A (Fold activation >250%))	CN(C)CCNC(=O)c1cc(NC(=O)c2cccc(N(C)C)c2)cc(-c2nc3ncccc3o2)c1 [Compound 154]	–
4.30 to 5.30	B (B (Fold Activation <250%))	COc1ccc(C(=O)Nc2cc(CN(C)C)cc(-c3nc4ncccc4o3)c2)cc1OC [Compound 156]	–
4.30 to 5.30	B (B (Fold Activation <250%))	COc1ccc(C(=O)Nc2cc(CN(C)C)cc(-c3nc4ncccc4o3)c2)c(OC)c1 [Compound 158]	–
4.00 to 4.29	A (A (Fold activation >250%))	CN(C)c1cccc(C(=O)Nc2cc(CN3CCNCC3)cc(-c3nc4ncccc4o3)c2)c1 [Compound 160]	–
4.30 to 5.30	B (B (Fold Activation <250%))	Cc1ccc2oc(-c3cccc(NC(=O)c4cccc(N(C)C)c4)c3)nc2n1 [Compound 167]	–
4.00 to 4.29	A (A (Fold activation >250%))	COc1cc(C(=O)Nc2cc(CN(C)C)cc(-c3nc4ccncc4s3)c2)cc(OC)c1OC [Compound 174]	–
4.00 to 4.29	B (B (Fold Activation <250%))	COc1ccc(C(=O)Nc2ccccc2-n2cccc2)cc1OC [Compound 175]	–
4.30 to 5.30	A (A (Fold activation >250%))	COc1ccc(C(=O)Nc2ccccc2-c2cn3cc(CN(C)C)sc3n2)cc1OC [Compound 178]	–
4.30 to 5.30	A (A (Fold activation >250%))	CN(C)c1cccc(C(=O)Nc2cccc(-c3nc4ncccc4[nH]3)c2)c1 [Compound 183]	–
4.30 to 5.30	B (B (Fold Activation <250%))	COc1cc(C)ccc1C(=O)Nc1ccc(-c2cc3cccnc3o2)cc1 [Compound 187]	–
> 5.30	B (B (Fold Activation <250%))	COc1ccc(C(=O)Nc2cccc(-c3cc4cccnc4o3)c2)c(OC)c1 [Compound 191]	–
> 5.30	A (A (Fold activation >250%))	COc1cc(C(=O)Nc2ccccc2-c2cn3ccsc3n2)cc(OC)c1OC [Compound 204]	–
4.30 to 5.30	A (A (Fold activation >250%))	COc1ccc(C(=O)Nc2ccccc2-c2cn3c(CN4CCNCC4)csc3n2)cc1OC [Compound 207]	–
> 5.30	B (B (Fold Activation <250%))	COc1ccc(C(=O)Nc2cccc(-c3nc4ccccc4[nH]3)c2)c(OC)c1 [Compound 211]	–
